5 compounds from ChEMBL document CHEMBL1135140, “Pyridazines. Part 28: 5-alkylidene-6-phenyl-3(2H)-pyridazinones, a new family of platelet aggregation inhibitors” (Bioorg Med Chem Lett, 2002) can be followed below.

pIC50: −log10 of the molar value.

The nature of this assay: Tested for anti-platelet activity by turbidimetric method using thrombin as agonist in washed platelet. The format is functional.

As for `COC(=O)C(=Cc1cc(=O)[nH]nc1-c1ccccc1)C(=O)OC`, the pIC50 is 4.35.
For `CCOC(=O)C(=Cc1cc(=O)[nH]nc1-c1ccccc1)C(=O)OCC` the value was 4.70; for `COC(=O)/C(=C/c1cc(O)nnc1-c1ccccc1)C(C)=O`, 4.60.
For `O=C1C(CC[S+]([O-])c2ccccc2)C(=O)N(c2ccccc2)N1c1ccccc1` (stereo not given) [SULFINPYRAZONE] the value was 3.16; for `Clc1ccccc1CN1CCc2sccc2C1` [TICLOPIDINE], 2.81.

Broadly, the pIC50 is the negative decadic logarithm of the IC50, by convention in mol/L. Read a high pIC50 as a small IC50.
